For assay [1], the target named is T1, Progesterone receptor (Homo sapiens) (UniProt P06401).
T1 sequence (whole entry): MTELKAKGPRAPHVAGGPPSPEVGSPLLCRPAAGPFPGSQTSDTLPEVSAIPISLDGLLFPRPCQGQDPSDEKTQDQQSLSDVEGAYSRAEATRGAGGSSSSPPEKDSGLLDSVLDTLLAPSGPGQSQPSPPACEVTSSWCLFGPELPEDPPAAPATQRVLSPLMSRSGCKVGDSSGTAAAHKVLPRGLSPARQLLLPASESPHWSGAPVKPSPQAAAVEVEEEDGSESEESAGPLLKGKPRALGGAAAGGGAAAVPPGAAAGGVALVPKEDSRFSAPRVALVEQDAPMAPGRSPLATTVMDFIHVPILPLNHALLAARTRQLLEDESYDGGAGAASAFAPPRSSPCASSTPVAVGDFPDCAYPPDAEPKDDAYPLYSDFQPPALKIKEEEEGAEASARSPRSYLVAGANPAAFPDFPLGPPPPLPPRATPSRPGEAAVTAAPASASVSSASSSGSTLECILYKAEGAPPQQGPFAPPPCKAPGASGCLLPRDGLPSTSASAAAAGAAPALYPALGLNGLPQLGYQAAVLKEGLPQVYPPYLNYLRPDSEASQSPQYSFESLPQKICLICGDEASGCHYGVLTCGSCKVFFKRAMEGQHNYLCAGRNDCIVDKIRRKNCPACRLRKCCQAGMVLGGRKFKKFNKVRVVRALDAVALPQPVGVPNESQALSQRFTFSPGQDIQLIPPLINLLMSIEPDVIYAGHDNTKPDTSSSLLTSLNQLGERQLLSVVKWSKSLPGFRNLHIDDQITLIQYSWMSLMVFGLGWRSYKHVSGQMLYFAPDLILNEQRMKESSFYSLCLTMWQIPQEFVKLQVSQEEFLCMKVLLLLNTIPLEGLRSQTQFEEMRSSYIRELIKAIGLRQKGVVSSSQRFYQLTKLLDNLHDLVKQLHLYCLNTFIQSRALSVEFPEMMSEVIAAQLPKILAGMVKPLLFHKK
As to the kind of experiment: Antagonist activity at progesterone receptor in human T47D cells assessed as inhibition of progesterone-induced alkaline phosphatase activity at 100 uM. It is filed as functional, cell-based.

Assay [2] concerns the target T2, Progesterone receptor (Homo sapiens, UniProt P06401).
T2 sequence (P06401 whole entry): T1 sequence (whole entry)
The assay can be described thus: Antagonist activity at human progesterone receptor expressed in CHO cells assessed as […] luciferase activity by reporter gene assay. Format: functional, cell-based.

Assay [3] has as its target T2, Progesterone receptor. The assay can be described thus: Antagonist activity at progesterone receptor in human T47D cells assessed as inhibition of progesterone-induced alkaline phosphatase activity. It is filed as functional, cell-based.
Assay [4] has as its target T1, Progesterone receptor (Homo sapiens). The assay can be described thus: Agonist activity at human progesterone receptor expressed in CHO cells assessed as […] luciferase activity by reporter gene assay. It is filed as functional, cell-based. (In a reporter assay the amount or activity of a reporter protein is the signal.)
Assay [5] has the same target. The assay can be described thus: Agonist activity at progesterone receptor in human T47D cells assessed as induction of alkaline phosphatase activity.
For assay [6] the target is unchanged. The assay can be described thus: Antagonist activity at human progesterone receptor expressed in CHO cells assessed as inhibition of progesterone-induced luciferase activity by reporter gene assay at 100 uM. It is filed as functional, cell-based.
The target of assay [7] is T3, Androgen receptor (Homo sapiens) (UniProt P10275).
T3 sequence (whole entry): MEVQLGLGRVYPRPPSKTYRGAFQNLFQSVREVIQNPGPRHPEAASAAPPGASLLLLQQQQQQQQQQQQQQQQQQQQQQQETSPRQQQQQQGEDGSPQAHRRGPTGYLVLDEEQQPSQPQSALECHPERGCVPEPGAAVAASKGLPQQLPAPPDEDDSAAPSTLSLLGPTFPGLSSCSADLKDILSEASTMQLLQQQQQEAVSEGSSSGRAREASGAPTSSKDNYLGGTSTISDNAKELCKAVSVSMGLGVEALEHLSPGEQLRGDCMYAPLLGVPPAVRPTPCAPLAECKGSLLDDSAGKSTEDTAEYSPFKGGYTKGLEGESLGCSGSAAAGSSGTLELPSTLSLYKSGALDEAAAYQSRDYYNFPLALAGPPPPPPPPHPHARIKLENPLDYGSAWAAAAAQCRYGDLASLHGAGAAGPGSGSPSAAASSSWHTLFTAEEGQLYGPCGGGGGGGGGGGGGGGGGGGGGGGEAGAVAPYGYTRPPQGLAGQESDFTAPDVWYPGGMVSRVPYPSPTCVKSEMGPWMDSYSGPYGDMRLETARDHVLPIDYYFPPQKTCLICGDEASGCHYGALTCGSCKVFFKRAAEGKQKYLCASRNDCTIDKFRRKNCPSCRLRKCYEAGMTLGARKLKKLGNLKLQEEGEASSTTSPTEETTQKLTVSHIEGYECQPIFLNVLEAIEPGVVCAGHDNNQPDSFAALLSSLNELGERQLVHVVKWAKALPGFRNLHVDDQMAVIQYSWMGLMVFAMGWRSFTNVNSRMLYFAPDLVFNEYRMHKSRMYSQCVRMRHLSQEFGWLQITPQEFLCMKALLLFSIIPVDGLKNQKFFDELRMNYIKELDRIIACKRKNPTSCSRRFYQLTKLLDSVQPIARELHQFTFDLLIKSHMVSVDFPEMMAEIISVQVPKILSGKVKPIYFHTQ
As to the kind of experiment: Displacement of [3H]testosterone from androgen receptor expressed in human T47D cells. Format: cell-based. (Loss of bound radioactivity is the signal in a displacement assay; it reports binding, not function.)

Assay [8] concerns the target T4, Estrogen receptor (Homo sapiens) (UniProt P03372).
T4 sequence (whole entry): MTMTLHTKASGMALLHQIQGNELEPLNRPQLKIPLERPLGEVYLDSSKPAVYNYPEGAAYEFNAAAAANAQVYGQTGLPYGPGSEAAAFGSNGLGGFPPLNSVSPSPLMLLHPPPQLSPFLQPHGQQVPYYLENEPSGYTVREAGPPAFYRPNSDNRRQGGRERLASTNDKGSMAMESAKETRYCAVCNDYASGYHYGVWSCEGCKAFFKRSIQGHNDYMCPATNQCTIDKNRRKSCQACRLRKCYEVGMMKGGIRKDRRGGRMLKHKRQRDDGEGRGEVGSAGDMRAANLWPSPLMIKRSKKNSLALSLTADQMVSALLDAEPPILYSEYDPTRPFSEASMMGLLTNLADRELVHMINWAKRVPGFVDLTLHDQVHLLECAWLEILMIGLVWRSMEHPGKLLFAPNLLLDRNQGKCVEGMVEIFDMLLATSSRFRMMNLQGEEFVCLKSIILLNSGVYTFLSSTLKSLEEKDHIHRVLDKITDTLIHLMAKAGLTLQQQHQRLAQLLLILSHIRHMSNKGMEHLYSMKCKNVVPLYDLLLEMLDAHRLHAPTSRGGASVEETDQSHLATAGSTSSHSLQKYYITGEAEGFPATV
The assay can be described thus: Displacement of [3H]estradiol from estrogen receptor expressed in human T47D cells. It is filed as cell-based.

The text below walks through data of ChEMBL document CHEMBL1155106, “Progesterone receptor antagonists with a 3-phenylquinazoline-2,4-dione/2-phenylisoquinoline-1,3-dione skeleton” (Bioorg Med Chem, 2008).

pIC50: −log10 of the molar value. The source made the active and inactive calls. The rule behind the calls is not given here.

The term inhibition denotes the drop in the measured response relative to a control, in per cent. In general, pIC50 refers to the IC50 on a negative log10 scale, so that one unit is a factor of ten.

With `O=C1CCC(N2C(=O)c3ccccc3C2=O)C(=O)N1O` (stereo not drawn), in assay [1], the inhibition is 42.5%.
Turning to `Cc1ccc(N2C(=O)c3ccccc3C(C)(C)C2=O)cc1`, the figures for the negative-log IC50 (pIC50) on Progesterone receptor [2] and at Progesterone receptor [3] were 5.05 and 5.09, respectively.
With `O=C1CCC(N2C(=O)c3cccc(O)c3C2=O)C(=O)N1O` (stereo not drawn), the inhibition in assay [1] amounted to 30.7%.
For the molecule `N#Cc1ccc(N2C(=O)c3ccccc3C3(CCCC3)C2=O)cc1`, the pIC50 on Progesterone receptor [2] was 6.16; on Progesterone receptor [3] it was 5.92.
In the case of `CC1(C)C(=O)N(c2ccc(C#N)cc2)C(=O)c2ccccc21`, the pIC50 is 5.74 at Progesterone receptor [2] and 5.80 at Progesterone receptor [3].
As for `CCC1(CC)C(=O)N(c2ccc(Cl)cc2)C(=O)c2ccccc21`, the pIC50 at Progesterone receptor [2] was 6.55; at Progesterone receptor [3], 6.60.
Take `COc1ccc(N2C(=O)c3ccccc3C(C)(C)C2=O)cc1`: the pIC50 is 4.77 on Progesterone receptor [2] and 4.96 on Progesterone receptor [3].
With `CC1(C)C(=O)N(c2ccccc2Cl)C(=O)c2ccccc21`, the pIC50 is 5.31 on Progesterone receptor [2] and 5.39 on Progesterone receptor [3].
Turning to `O=c1c2ccccc2n(Cc2ccccc2)c(=O)n1-c1ccccc1`, the outcome in assay [4] and in assay [5] was inactive. Also, the pIC50 on Progesterone receptor [2] is 4.82; on Progesterone receptor [3] it was 4.96.
For `CCCn1c(=O)n(-c2ccccc2)c(=O)c2ccccc21`, the outcome in assay [4] and in assay [5] was inactive. Further, the pIC50 is 4.74 at Progesterone receptor [2] and 4.64 on Progesterone receptor [3].
In the case of `C=CCC1(CC=C)C(=O)N(c2ccc(C#N)cc2)C(=O)c2ccccc21`, the pIC50 was 6.82 at Progesterone receptor [2] and 6.96 on Progesterone receptor [3].
Regarding `O=C1CC(O)C(N2C(=O)c3ccccc3C2=O)C(=O)N1` (stereo not drawn), the inhibition in assay [1] stood at 30.6%.
Take `CC1(C)C(=O)N(c2cccc(Cl)c2)C(=O)c2ccccc21`: the pIC50 was 5.24 on Progesterone receptor [2] and 5.47 on Progesterone receptor [3].
Turning to `O=C1CC(O)C(N2C(=O)c3ccc(O)cc3C2=O)C(=O)N1` (stereo not drawn), the inhibition in assay [1] worked out at 29.4%.
On to `CCn1c(=O)n(-c2ccccc2)c(=O)c2ccccc21`, for which the result in assay [4] and in assay [5] was inactive. The pIC50 on Progesterone receptor [2] was 4.47; on Progesterone receptor [3], 4.52.
Take `Cn1c(=O)n(-c2ccccc2)c(=O)c2ccccc21`: the result in assay [4] and in assay [5] was inactive. Besides, on Progesterone receptor [3], the pIC50 was 4.08.
Consider `O=c1[nH]c2ccccc2c(=O)n1-c1ccccc1`, for which the outcome in assay [4] and in assay [5] was inactive. In addition, the inhibition in assay [1] came out at 34%.
Turning to `O=C1Cc2ccccc2C(=O)N1c1ccccc1`, the values for the inhibition in assay [1] and in assay [6] were 25% and 38%, respectively.
Regarding `CCCC1(CCC)C(=O)N(c2ccc(C#N)cc2)C(=O)c2ccccc21`, the pIC50 at Progesterone receptor [2] is 6.85; on Progesterone receptor [3], 6.92.
For the molecule `O=C1c2ccccc2C2(CCCC2)C(=O)N1c1ccc(Cl)cc1`, the negative-log IC50 (pIC50) at Progesterone receptor [2] is 5.68; on Progesterone receptor [3] it was 5.89.
On the same counts, the results for `C=CCC1(CC=C)C(=O)N(c2ccc(Cl)cc2)C(=O)c2ccccc21` are 6.07 and 6.40.
With `O=C1c2ccccc2C2(CCCCC2)C(=O)N1c1ccc(Cl)cc1`, the negative-log IC50 (pIC50) at Progesterone receptor [2] is 5.82; at Progesterone receptor [3], 5.96.
Turning to `CCCC1(CCC)C(=O)N(c2ccc(Cl)cc2)C(=O)c2ccccc21`, the pIC50 on Progesterone receptor [2] is 6.00; at Progesterone receptor [3] it was 5.96.
For `CC1(C)C(=O)N(c2cccc(F)c2)C(=O)c2ccccc21`, the figures for the pIC50 on Progesterone receptor [2] and at Progesterone receptor [3] were 4.96 and 5.00, respectively.
Consider `CC1(C)C(=O)N(c2ccccc2)C(=O)c2ccccc21`, for which the results for the pIC50 at Progesterone receptor [2] and at Progesterone receptor [3] were 4.59 and 4.70, respectively.
Consider `CC1(C)C(=O)N(c2ccccc2F)C(=O)c2ccccc21`, for which the values for the negative-log IC50 (pIC50) on Progesterone receptor [2] and at Progesterone receptor [3] were 5.00 and 4.89, respectively.
Consider `CC1(C)C(=O)N(c2ccc(Cl)cc2)C(=O)c2ccccc21`, for which the values for the pIC50 on Progesterone receptor [2] and at Progesterone receptor [3] were 5.48 and 5.89, respectively.
Regarding `O=C1CCC(N2C(=O)c3ccc(O)cc3C2=O)C(=O)N1O` (stereo not drawn), the inhibition in assay [1] turned out to be 53.7%.
`N#Cc1ccc(N2C(=O)c3ccccc3C3(CCCCC3)C2=O)cc1`: the pIC50 is 6.35 at Progesterone receptor [2] and 6.06 at Progesterone receptor [3].
As to `O=C1CCC(N2C(=O)c3ccccc3C2=O)C(=O)N1` (stereo not drawn), in assay [1], the result was inactive.
On to `CC1(C)C(=O)N(c2ccc(F)cc2)C(=O)c2ccccc21`, for which the figures for the pIC50 on Progesterone receptor [2] and on Progesterone receptor [3] were 5.05 and 5.17, respectively.
Regarding `CCC1(CC)C(=O)N(c2ccc(C#N)cc2)C(=O)c2ccccc21`, the outcome in assay [7] and in assay [8] was inactive. In addition, the figures for the pIC50 on Progesterone receptor [2] and on Progesterone receptor [3] were 7.11 and 7.13, respectively.
